Data set [1] can be described thus: Selectivity index, ratio of CC25 for African green monkey Vero cells to IC25 for Herpes simplex virus 1 KOS. In kind it is toxicity, cell-based. Particulars: read-out: Selectivity Index.
Another data set relates to Vero. The experiment in a line: (§1) Cytotoxicity against Chlorocebus aethiops (African green monkey) Vero cells after 72 hr by XTT assay. In kind it is cell-based. The following applies: chlorocebus sabaeus, vero, 72 h.
Data set [2] can be described thus: as §1. In kind it is cell-based. The following applies: chlorocebus sabaeus, Vero cells.
Data set [3] concerns Human alphaherpesvirus 1. The experiment in a line: Antiviral activity against Human herpesvirus 1 strain KOS infected Vero cells after 72 hr by plaque reduction assay. In kind it is functional, organism-based.
Data set [4] is described as follows: Therapeutic index, ratio of CC50 for African green monkey Vero cells to IC50 for Herpes simplex virus 1 KOS. In kind it is cell-based. Particulars: read-out: Ratio CC50/IC50.
Data set [5] has as its system Human alphaherpesvirus 1. Briefly: Antiviral activity against Human herpesvirus 1 strain KOS infected Vero cells at 20 umol/L incubated at 4 hr post-infection measured after 68 hr by plaque reduction assay. In kind it is functional, organism-based.
The test system of data set [6] is Human alphaherpesvirus 1. The experiment in a line: Antiviral activity against Human herpesvirus 1 strain KOS infected Vero cells at 20 umol/L incubated for 4 hr prior to infection measured after 72 hr by plaque reduction assay. In kind it is functional, organism-based.
The subject of data set [7] is Human alphaherpesvirus 1. Briefly: Antiviral activity against Human herpesvirus 1 strain KOS infected Vero cells at 20 umol/L incubated at 2 hr post-infection measured after 70 hr by plaque reduction assay. In kind it is functional, organism-based.
For data set [8], the system named is Human alphaherpesvirus 1. Briefly: Antiviral activity against Human herpesvirus 1 strain KOS infected Vero cells at 20 umol/L incubated for 2 hr prior to infection measured after 72 hr by plaque reduction assay. In kind it is functional, organism-based.
The subject of data set [9] is Human alphaherpesvirus 1. Briefly: Antiviral activity against Human herpesvirus 1 strain KOS infected Vero cells at 20 umol/L incubated immediately after infection for 72 hr by plaque reduction assay. In kind it is functional, organism-based.
The mark [10] stands for this setting: Human alphaherpesvirus 1, KOS, Vero, 72 h.
The mark [11] stands for this setting: Human alphaherpesvirus 1, KOS, Vero, 72 h, read-out: IC50.

Calls of active or inactive are those of the source. The calls are words filed in the database; no cut-off is given here.

Consider `CC1=C(C(=O)Nc2ccc(Cl)cc2)C(c2cccs2)NC(=O)N1` (configuration not stated), for which the figures for the selectivity ratio in data set [1] and in data set [4] were 7.1 and more than 1.6, respectively. The molecule further displayed a CC25 in the data set with Vero of 83.2 µM. The same molecule had a CC50 at 72 h in data set [2] of more than 100 µM. Besides, the IC25 with Human alphaherpesvirus 1 [3] (setting [10]) amounted to 11.7 µM. For the same molecule, the IC50 with Human alphaherpesvirus 1 [3] (setting [11]) came to 59.7 µM.
For the molecule `CC1=C(C(=O)OCC(C)C)C(c2cccs2)NC(S)=N1` (configuration not stated), the selectivity ratio in [1] worked out at 30.6; in data set [4], 48.6. The CC25 in the data set on Vero is 18.4 µM. Also, it took 87.5 µM to reach half-maximal cytotoxicity in [2] (CC50 at 72 h). In the data set with Human alphaherpesvirus 1 [3] (setting [10]), this molecule showed an IC25 of 0.6 µM. The IC50 in the data set with Human alphaherpesvirus 1 [3] (setting [11]) worked out at 1.8 µM.
For the molecule `CC1=C(C(=O)Nc2ccccc2Cl)C(c2ccc(Br)cc2)NC(=O)N1` (configuration not stated), the results for the selectivity ratio in [1] and in data set [4] were 936 and more than 3, respectively. In the data set with Vero, this molecule showed a CC25 of 84.3 µM. The molecule further returned a CC50 at 72 h in data set [2] of more than 100 µM. Besides, in the data set on Human alphaherpesvirus 1 [3] (setting [10]), the IC25 worked out at 0.09 µM. Also, the half-maximal inhibitory concentration (IC50) in the data set with Human alphaherpesvirus 1 [3] (setting [11]) turned out to be 32.7 µM.
Regarding `CC1=C(C(=O)Nc2ccccc2Cl)C(c2cccc(Br)c2)NC(=O)N1` (configuration not stated), the selectivity ratio in data set [1] was 34.1; in [4] it was more than 1. Further, the CC25 in the data set with Vero was 54.7 µM. For the same molecule, the CC50 at 72 h in data set [2] is more than 100 µM. Further, in the data set on Human alphaherpesvirus 1 [3] (setting [10]), the 25% effect level (IC25) was put at 1.6 µM. In addition, the IC50 with Human alphaherpesvirus 1 [3] (setting [11]) came out at 95.4 µM.
As to `CC1=C(C(=O)Nc2ccc(F)cc2)C(c2ccccc2)NC(=O)N1` (configuration not stated), the selectivity ratio is 48.6 in data set [1] and more than 1 in data set [4]. The molecule further came in with a CC25 with Vero of 43.8 µM. Further, the CC50 at 72 h in data set [2] is more than 100 µM. In the data set on Human alphaherpesvirus 1 [3] (setting [10]), this molecule returned an IC25 of 0.9 µM. Also, the IC50 in the data set on Human alphaherpesvirus 1 [3] (setting [11]) was more than 100 µM.
As for `CC1=C(C(=O)OC(C)(C)C)C(c2cccs2)NC(=O)N1` (configuration not stated), the selectivity ratio in data set [1] and in data set [4] was less than 1 each time. Further, the CC25 in the data set on Vero was 76.7 µM. This molecule also showed a CC50 at 72 h in data set [2] of more than 100 µM. Besides, in the data set with Human alphaherpesvirus 1 [3], the IC25 entry was “inactive”. Moreover, in the data set with Human alphaherpesvirus 1 [3] (vero), the IC50 entry was “Not Active”.
For the molecule `CCCOC(=O)C1=C(C)NC(=S)NC1c1cccs1` (configuration not stated), the selectivity ratio in data set [1] was 0.3; in [4] it was 2.9. In the data set with Vero, this molecule displayed a CC25 of 0.5 µM. The CC50 at 72 h in data set [2] was determined as 23.6 µM. This molecule also came in with an IC25 in the data set with Human alphaherpesvirus 1 [3] (setting [10]) of 1.5 µM. The IC50 with Human alphaherpesvirus 1 [3] (setting [11]) amounted to 7.9 µM.
With `COc1cccc(C2NC(=O)NC(C)=C2C(=O)Nc2ccccc2Cl)c1` (configuration not stated), the selectivity ratio is 5 in data set [1] and more than 1 in data set [4]. The same molecule had a CC25 with Vero of 45.6 µM. For the same molecule, in data set [2], the CC50 at 72 h was more than 100 µM. Moreover, the IC25 in the data set on Human alphaherpesvirus 1 [3] (setting [10]) is 9.1 µM. In addition, in the data set on Human alphaherpesvirus 1 [3] (setting [11]), the IC50 is more than 100 µM.
On to `CC1=C(C(=O)Nc2cccc(Cl)c2)C(c2cnc(CS)n2NCc2ccccc2)NC(=O)N1` (configuration not stated), for which the selectivity ratio in data set [1] is 1.8; in [4] it was more than 1.4. In addition, the CC25 in the data set on Vero stood at 100 µM. For the same molecule, the CC50 at 72 h in data set [2] is more than 100 µM. The IC25 in the data set with Human alphaherpesvirus 1 [3] (setting [10]) was found to be 53.8 µM. Moreover, the IC50 in the data set with Human alphaherpesvirus 1 [3] (setting [11]) turned out to be 67 µM.
Regarding `CC1=C(C(=O)Nc2ccc(Br)cc2)C(c2ccccc2)NC(=O)N1` (configuration not stated), the selectivity ratio was 356 in data set [1] and more than 2.3 in data set [4]. This molecule also came in with a CC25 in the data set with Vero of 71.3 µM. The CC50 at 72 h in [2] is more than 100 µM. The molecule further gave an IC25 in the data set on Human alphaherpesvirus 1 [3] (setting [10]) of 0.2 µM. For the same molecule, in the data set on Human alphaherpesvirus 1 [3] (setting [11]), the IC50 was 43.3 µM.
For `COC(=O)C1=C(C)NC(=O)NC1c1ccc(Br)cc1` (configuration not stated), the outcome in the data set with Human alphaherpesvirus 1 [5] and in the data set on Human alphaherpesvirus 1 [7] was Active. The outcome in the data set on Human alphaherpesvirus 1 [6], in the data set with Human alphaherpesvirus 1 [8] and with Human alphaherpesvirus 1 [9] was inactive. Moreover, the selectivity ratio was found to be 123 in data set [1] and 111 in data set [4]. Moreover, the CC25 in the data set with Vero came out at 12.3 µM. This molecule yielded a CC50 at 72 h in data set [2] of 100 µM. The IC25 in the data set with Human alphaherpesvirus 1 [3] (setting [10]) amounted to 0.1 µM. Further, in the data set with Human alphaherpesvirus 1 [3] (setting [11]), the IC50 is 0.9 µM.
On to `CC1=C(C(=O)Nc2cccc(Cl)c2)C(c2cccs2)NC(=O)N1` (configuration not stated), for which the selectivity ratio in data set [1] and in data set [4] was less than 1 in each case. The molecule further came in with a CC25 in the data set with Vero of 87.9 µM. Moreover, the CC50 at 72 h in [2] is more than 100 µM. For the same molecule, in the data set on Human alphaherpesvirus 1 [3], the IC25 entry was “inactive”. Further, the concentration for half-maximal inhibition (IC50) result in the data set with Human alphaherpesvirus 1 [3] (vero) was “Not Active”.

These data come from ChEMBL document CHEMBL3045494, “Inhibitory effect and structureactivity relationship of some Biginelli-type pyrimidines against HSV-1” (Med Chem Res, 2013).
